Key:
[1] = molecular target: 72 kDa type IV collagenase (Homo sapiens, UniProt P08253)
[2] = Oral bioavailability in rat at 20 mg/kg; type: ADME, organism-based; settings: in vivo
[3] = molecular target: Collagenase 3 (Homo sapiens, UniProt P45452)
[4] = Half life in rat at 20 mg/kg, po; type: ADME, organism-based; design: dose 20 mg/kg, route oral; settings: in vivo
[5] = system: Rattus norvegicus; assay: Plasma concentration in rat at 20 mg/kg, po; type: ADME, organism-based; design: dose 20 mg/kg, route oral; settings: in vivo; further: time not given here
[6] = Cmax in rat at 20 mg/kg, po; type: ADME, organism-based; design: dose 20 mg/kg, route oral; settings: in vivo
[7] = molecular target: Neutrophil collagenase (Homo sapiens, UniProt P22894)
Chain of Neutrophil collagenase (P22894 whole entry): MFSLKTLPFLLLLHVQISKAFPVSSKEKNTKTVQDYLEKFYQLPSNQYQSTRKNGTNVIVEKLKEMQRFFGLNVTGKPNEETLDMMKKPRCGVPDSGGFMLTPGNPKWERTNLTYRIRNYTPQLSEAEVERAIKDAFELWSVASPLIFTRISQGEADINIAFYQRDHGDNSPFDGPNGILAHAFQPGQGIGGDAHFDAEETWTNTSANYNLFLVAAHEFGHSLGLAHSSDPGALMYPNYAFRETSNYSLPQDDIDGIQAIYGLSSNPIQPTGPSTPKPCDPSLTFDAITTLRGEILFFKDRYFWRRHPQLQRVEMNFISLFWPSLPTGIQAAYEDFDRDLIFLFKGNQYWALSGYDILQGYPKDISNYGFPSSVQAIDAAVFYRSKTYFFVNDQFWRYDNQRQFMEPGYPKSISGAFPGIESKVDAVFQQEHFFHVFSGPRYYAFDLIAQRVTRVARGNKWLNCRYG

[8] = molecular target: T1, Interstitial collagenase (Homo sapiens, UniProt P03956); type: cell-based, HT-1080
T1 sequence (P03956 whole entry): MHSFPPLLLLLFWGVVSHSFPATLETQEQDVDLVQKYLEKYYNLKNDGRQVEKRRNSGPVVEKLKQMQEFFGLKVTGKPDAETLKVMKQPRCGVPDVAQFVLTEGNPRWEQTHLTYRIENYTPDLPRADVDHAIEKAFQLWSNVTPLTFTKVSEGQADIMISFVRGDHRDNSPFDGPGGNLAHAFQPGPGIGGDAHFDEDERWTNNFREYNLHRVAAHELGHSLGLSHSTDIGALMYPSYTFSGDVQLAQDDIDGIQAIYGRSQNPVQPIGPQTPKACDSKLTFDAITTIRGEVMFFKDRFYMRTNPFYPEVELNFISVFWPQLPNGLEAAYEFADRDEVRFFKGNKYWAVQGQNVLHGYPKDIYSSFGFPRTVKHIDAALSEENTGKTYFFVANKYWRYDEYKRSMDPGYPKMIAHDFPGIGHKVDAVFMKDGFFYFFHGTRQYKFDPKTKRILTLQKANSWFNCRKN

[9] = molecular target: Stromelysin-1 (Homo sapiens, UniProt P08254)
Chain of Stromelysin-1 (P08254 whole entry): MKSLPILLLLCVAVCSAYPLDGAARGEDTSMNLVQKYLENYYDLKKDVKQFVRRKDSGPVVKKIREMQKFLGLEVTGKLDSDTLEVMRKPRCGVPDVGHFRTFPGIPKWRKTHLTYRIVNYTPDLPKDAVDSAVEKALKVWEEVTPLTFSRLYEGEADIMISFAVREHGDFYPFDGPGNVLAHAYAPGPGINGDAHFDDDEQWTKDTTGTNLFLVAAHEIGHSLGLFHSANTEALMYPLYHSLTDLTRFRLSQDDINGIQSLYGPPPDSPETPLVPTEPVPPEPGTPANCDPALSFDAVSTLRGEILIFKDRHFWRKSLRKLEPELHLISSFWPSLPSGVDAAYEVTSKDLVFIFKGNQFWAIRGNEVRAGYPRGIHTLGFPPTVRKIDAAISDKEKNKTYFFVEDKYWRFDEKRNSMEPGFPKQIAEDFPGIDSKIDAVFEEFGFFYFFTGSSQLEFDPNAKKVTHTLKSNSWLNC

[10] = molecular target: Matrix metalloproteinase-14 (Homo sapiens, UniProt P50281)
[11] = molecular target: Matrix metalloproteinase-9 (Homo sapiens, UniProt P14780)
Chain of Matrix metalloproteinase-9 (P14780 whole entry): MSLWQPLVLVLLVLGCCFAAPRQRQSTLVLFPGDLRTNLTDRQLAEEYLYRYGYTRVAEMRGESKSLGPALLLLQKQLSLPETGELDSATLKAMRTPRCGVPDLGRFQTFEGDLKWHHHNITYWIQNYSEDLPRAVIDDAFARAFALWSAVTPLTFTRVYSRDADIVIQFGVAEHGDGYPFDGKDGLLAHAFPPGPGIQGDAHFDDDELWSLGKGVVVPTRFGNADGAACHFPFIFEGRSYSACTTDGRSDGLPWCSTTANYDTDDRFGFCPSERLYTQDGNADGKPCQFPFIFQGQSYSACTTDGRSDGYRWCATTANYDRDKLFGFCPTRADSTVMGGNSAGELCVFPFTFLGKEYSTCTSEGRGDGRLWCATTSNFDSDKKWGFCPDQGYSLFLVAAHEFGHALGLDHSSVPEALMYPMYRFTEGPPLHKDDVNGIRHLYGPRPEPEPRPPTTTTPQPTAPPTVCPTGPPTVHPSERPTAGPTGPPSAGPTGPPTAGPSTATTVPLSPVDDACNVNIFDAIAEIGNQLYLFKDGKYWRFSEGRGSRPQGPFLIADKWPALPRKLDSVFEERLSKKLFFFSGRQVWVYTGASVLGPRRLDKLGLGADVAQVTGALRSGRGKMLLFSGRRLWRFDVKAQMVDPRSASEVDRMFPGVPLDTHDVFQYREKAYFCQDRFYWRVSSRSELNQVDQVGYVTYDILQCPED

[12] = Oral bioavailability in rat at 10 mg/mL; type: ADME, organism-based; settings: in vivo
[13] = system: Rattus norvegicus; assay: Plasma concentration in rat at 10 mg/mL, iv and po; type: ADME, organism-based; settings: in vivo; further: time not given here
[14] = Cmax in rat at 10 mg/mL, iv and po; type: ADME, organism-based; settings: in vivo
[15] = Half life in rat at 10 mg/mL, iv and po; type: ADME, organism-based; settings: in vivo

Chain of 72 kDa type IV collagenase (P08253 whole entry): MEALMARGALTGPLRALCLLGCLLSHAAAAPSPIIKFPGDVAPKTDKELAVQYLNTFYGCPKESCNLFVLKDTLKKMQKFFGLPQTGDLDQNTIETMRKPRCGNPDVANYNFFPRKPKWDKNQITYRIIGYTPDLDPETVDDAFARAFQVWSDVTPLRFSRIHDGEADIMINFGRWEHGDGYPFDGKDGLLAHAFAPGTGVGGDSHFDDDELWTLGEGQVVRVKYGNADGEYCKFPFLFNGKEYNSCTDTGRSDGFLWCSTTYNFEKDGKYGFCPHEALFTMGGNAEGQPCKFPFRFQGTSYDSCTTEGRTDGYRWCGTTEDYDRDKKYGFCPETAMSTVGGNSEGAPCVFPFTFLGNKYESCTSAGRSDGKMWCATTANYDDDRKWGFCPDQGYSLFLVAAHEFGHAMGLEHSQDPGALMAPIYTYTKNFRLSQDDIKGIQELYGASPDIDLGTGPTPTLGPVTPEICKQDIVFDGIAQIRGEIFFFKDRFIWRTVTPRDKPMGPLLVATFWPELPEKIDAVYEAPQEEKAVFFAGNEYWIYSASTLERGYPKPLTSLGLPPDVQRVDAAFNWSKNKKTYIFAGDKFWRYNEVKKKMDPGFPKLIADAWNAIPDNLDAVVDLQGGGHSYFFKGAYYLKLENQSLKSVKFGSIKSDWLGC

Row | IC50 [1] [nM] | bioavailability [2] [%] | IC50 [3] [nM] | half-life [4] [h] | Cp [5] [ng/mL] | Cmax [6] [ng/mL] | IC50 [7] [nM] | IC50 [8] [nM] | IC50 [9] [nM] | IC50 [10] [nM] | IC50 [11] [nM] | bioavailability [12] [%] | Cp [13] [ng/mL] | Cmax [14] [ng/mL] | half-life [15] [h] | Compound
1 | 0.3 | 2.6 | 0.35 | 0.94 | 73 | 147 |  |  |  |  |  |  |  |  |  | O=C(NO)C1(S(=O)(=O)c2ccc(Oc3ccc(C(F)(F)F)cc3)cc2)CCN(CCN2CCOCC2)CC1
2 | 0.1 | 23.8 | 0.25 | 0.73 | 21 | 5310 | 1.6 | > 10000 | 32.6 |  |  |  |  |  |  | C#CCN1CCC(C(=O)NO)(S(=O)(=O)c2ccc(Oc3ccc(C(C)C)cc3)cc2)CC1
3 | < 0.1 |  | 0.1 |  |  |  |  | 300 |  | 10.5 | < 0.1 |  |  |  |  | CC(C)Oc1ccc(Oc2ccc(S(=O)(=O)C3(C(=O)NO)CCOCC3)cc2)cc1
4 |  | 36.9 |  | 1.01 | 192 |  | 10 |  | 0.2 |  |  |  |  |  |  | C#CCN1CCC(C(=O)NO)(S(=O)(=O)c2ccc(Oc3ccc(OC)cc3)cc2)CC1
5 |  |  |  |  | 128 | 1550 | 2.4 |  | 35 |  |  |  |  |  |  | O=C(NO)C1(S(=O)(=O)c2ccc(Oc3ccc4c(c3)OCO4)cc2)CCNCC1
6 | 0.1 |  | 0.1 |  |  |  |  | 770 |  |  |  |  |  |  |  | CC(C)Oc1ccc(Oc2ccc(S(=O)(=O)C3(C(=O)NO)CCN(C4CC4)CC3)cc2)cc1
7 | < 0.1 | 6.7 | 0.1 | 1.78 | 223 | 630 | 0.7 | 10000 |  |  |  |  |  |  |  | O=C(NO)C1(S(=O)(=O)c2ccc(Oc3ccc(OC(F)(F)F)cc3)cc2)CCNCC1
8 | 0.25 |  | 0.2 |  |  |  | 1.2 | 2400 | 20 | 4 |  |  |  |  |  | COCCN1CCC(C(=O)NO)(S(=O)(=O)c2ccc(Oc3ccc4c(c3)OCO4)cc2)CC1
9 |  | 30.1 | 0.6 | 0.843 | 134 |  | 1.3 | 2000 | 18.1 |  |  |  |  |  |  | C#CCN1CCC(C(=O)NO)(S(=O)(=O)c2ccc(Oc3ccc4c(c3)OCO4)cc2)CC1
10 | < 0.1 |  | 0.2 |  |  |  |  | 2600 |  |  | < 0.1 |  |  |  |  | C#CCN1CCC(C(=O)NO)(S(=O)(=O)c2ccc(Oc3ccc(OC(F)(F)F)cc3)cc2)CC1
11 | 0.2 | 16.6 | 0.5 | 3.3 | 15 | 9460 | 1.5 | 6000 | 21.5 |  |  |  |  |  |  | O=C(NO)C1(S(=O)(=O)c2ccc(Oc3ccc4c(c3)OCCO4)cc2)CCN(C2CC2)CC1
12 | < 0.1 |  | < 0.1 |  |  |  | 0.4 | > 10000 |  |  | < 0.1 |  |  |  |  | CC(C)N1CCC(C(=O)NO)(S(=O)(=O)c2ccc(Oc3ccc(OC(F)(F)F)cc3)cc2)CC1
13 |  |  |  |  |  |  | 4 |  | 35 |  |  |  |  |  |  | O=C(NO)C1(S(=O)(=O)c2ccc(Oc3ccc(Cl)c(Cl)c3)cc2)CCOCC1
14 | 0.1 |  | 0.2 |  |  |  |  | 10000 |  |  |  |  |  |  |  | COCCN1CCC(C(=O)NO)(S(=O)(=O)c2ccc(Oc3ccc(C(C)C)cc3)cc2)CC1
15 | 1.7 | 12.4 | 1.2 | 1.88 | 150 | 540 | 2 | > 10000 | 64.7 | 160 |  |  |  |  |  | O=C(NO)C1(S(=O)(=O)c2ccc(Oc3ccc(C(F)(F)F)cc3)cc2)CCNCC1
16 | 0.4 |  |  |  |  |  | 0.4 | 5000 |  |  |  | 49 | 3113 | 7270 | 1.71 | O=C(NO)C1(S(=O)(=O)c2ccc(Oc3ccc(SC(F)(F)F)cc3)cc2)CCOCC1
17 | 0.2 |  | 0.3 |  | 160 |  | 1.9 | 4500 | 20.6 |  |  |  |  |  |  | COc1ccc(Oc2ccc(S(=O)(=O)C3(C(=O)NO)CCN(Cc4ccccn4)CC3)cc2)cc1
18 |  |  |  |  |  |  | 0.9 |  | 35 | 10.6 |  | 35.9 | 1172 | 8580 | 1.87 | O=C(NO)C1(S(=O)(=O)c2ccc(Oc3ccc(OC(F)(F)F)cc3)cc2)CCOCC1

Row | IC50 [1] [nM] | bioavailability [2] [%] | IC50 [3] [nM] | half-life [4] [h] | Cp [5] [ng/mL] | Cmax [6] [ng/mL] | IC50 [7] [nM] | IC50 [8] [nM] | IC50 [9] [nM] | IC50 [10] [nM] | IC50 [11] [nM] | bioavailability [12] [%] | Cp [13] [ng/mL] | Cmax [14] [ng/mL] | half-life [15] [h] | Compound
19 | < 0.1 |  | 0.6 |  |  |  |  | > 10000 |  |  | 0.18 |  |  |  |  | CN1CCC(C(=O)NO)(S(=O)(=O)c2ccc(Oc3ccc(OC(F)(F)F)cc3)cc2)CC1
20 | 0.2 |  | 0.6 |  |  |  | 1.4 | > 10000 | 36.9 |  |  |  |  |  |  | CCN1CCC(C(=O)NO)(S(=O)(=O)c2ccc(Oc3ccc(C(F)(F)F)cc3)cc2)CC1
21 | 0.3 |  | 0.5 |  |  |  |  | 2000 |  |  |  |  |  |  |  | COCCN1CCC(C(=O)NO)(S(=O)(=O)c2ccc(Oc3ccc(OC(C)C)cc3)cc2)CC1
22 |  | 4 |  | 1.06 | 72 | 159 | 1.6 |  | 18.1 | 9 |  |  |  |  |  | CC(=O)N1CCC(C(=O)NO)(S(=O)(=O)c2ccc(Oc3ccc(OC(F)(F)F)cc3)cc2)CC1
23 | 1 |  | 2.7 |  |  |  | 1.8 | > 10000 | 22.5 |  |  |  |  |  |  | CC(C)c1ccc(Oc2ccc(S(=O)(=O)C3(C(=O)NO)CCN(C(C)C)CC3)cc2)cc1
24 | 0.8 |  | 0.8 |  |  |  | 30 | > 10000 | 55.3 |  |  | 18.3 | 257 | 1140 | 1.12 | O=C(NO)C1(S(=O)(=O)c2ccc(Oc3cccc(C(F)(F)F)c3)cc2)CCOCC1
25 | < 0.1 |  | < 0.1 |  |  |  |  | 2500 |  |  | < 0.1 |  |  |  |  | CSc1ccc(Oc2ccc(S(=O)(=O)C3(C(=O)NO)CCOCC3)cc2)cc1
26 | 0.5 |  |  |  |  |  |  |  |  |  |  | 42.3 | 3 | 1610 | 0.25 | O=C(NO)C1(S(=O)(=O)c2ccc(Oc3ccncc3)cc2)CCOCC1
27 |  |  |  |  |  |  | 1.2 |  | 18.1 |  |  | 45.8 | 506 | 3120 | 1.5 | O=C(NO)C1(S(=O)(=O)c2ccc(Oc3ccc(Cl)cc3)cc2)CCOCC1
28 | 0.1 |  | 0.25 |  |  |  | 2.4 | 1400 | 50 |  |  |  |  |  |  | O=C(NO)C1(S(=O)(=O)c2ccc(Oc3ccc(-c4ccccc4)cc3)cc2)CCOCC1
29 | < 0.1 | 21.9 | < 0.1 | 1.39 | 570 | 1380 |  | 4500 |  |  |  |  |  |  |  | O=C(NO)C1(S(=O)(=O)c2ccc(Oc3ccc(OC(F)(F)F)cc3)cc2)CCN(CCO)CC1
30 |  |  |  |  |  |  | 1.8 |  | 18.1 | 4.5 |  |  |  |  |  | O=C(NO)C1(S(=O)(=O)c2ccc(Oc3cccc(Cl)c3)cc2)CCOCC1
31 | 0.1 |  | 0.1 |  |  |  | 0.4 |  | 7 |  |  | 5.8 | 50 | 872 | 1.74 | O=C(NO)C1(S(=O)(=O)c2ccc(Oc3ccccc3)cc2)CCOCC1
32 | 0.3 | 48.3 | 5.5 | 2.08 | 429 | 5120 | 1.4 | > 10000 | 40 |  |  |  |  |  |  | CC(C)N1CCC(C(=O)NO)(S(=O)(=O)c2ccc(Oc3ccc(C(F)(F)F)cc3)cc2)CC1
33 |  | 14.7 |  | 1.66 | 3040 | 3130 |  | 5900 |  |  |  |  |  |  |  | CCOCCN1CCC(C(=O)NO)(S(=O)(=O)c2ccc(Oc3ccc(OC(F)(F)F)cc3)cc2)CC1
34 | 0.5 |  | 0.3 |  | 206 | 13100 |  | 1000 |  |  | < 0.1 |  |  |  |  | O=C(NO)C1(S(=O)(=O)c2ccc(Oc3ccc4c(c3)OCO4)cc2)CCN(C2CC2)CC1
35 | 0.1 |  | 0.25 |  |  |  |  | 1000 |  |  | 0.2 |  |  |  |  | CCOc1ccc(Oc2ccc(S(=O)(=O)C3(C(=O)NO)CCN(C4CC4)CC3)cc2)cc1
36 | 0.2 |  | 0.3 |  |  |  |  | 400 |  | 1.71 | < 0.1 |  |  |  |  | O=C(NO)C1(S(=O)(=O)c2ccc(Oc3ccc(O)cc3)cc2)CCOCC1

From ChEMBL document CHEMBL1800055, “Orally active MMP-1 sparing α-tetrahydropyranyl and α-piperidinyl sulfone matrix metalloproteinase (MMP) inhibitors with efficacy in cancer, arthritis, and cardiovascular disease” (J Med Chem, 2010)
